Legend:
mice fed with HFD = test: Serum and liver lipid levels of mice fed with HFD; assay type: in vivo
Procedure: (§1) During the 2 month experiments, mice fasted for one night before the experiment was changed from a standard diet (STD) to an HFD and then the mice were randomly divided into 13 groups, including a protection group, 2 control and 10 treatment groups. Six mice were used in each group. […] Liver from the protection group supplemented with KMUP-1 HCl (1 mg/kg/day) were used to determine the HMG CoA reductase expression. Each group of mice had free access to drinking water from week 1 to week 14. Tap water was used to normalize mineral nutrition.
Within 2 months, the 3 day food intake average for each animal was measured. The weight gain and plasma lipid levels of each group were determined and compared to the non-treatment control group. […] Agents used in the assays were obtained from Merck & Co. (Kenilworth, N.J., U.S.A.). Triglyceride (TG), total cholesterol, HDL cholesterol and LDL cholesterol in mouse serum were measured by methods used in the clinic. To measure the hepatic Triglyceride, isolated liver were cut into small chips.

HMG CoA reductase = test: HFD-induced HMG CoA reductase expression in liver; assay type: in vivo, mice
Procedure: as §1, with “In the experiment, C57BL/6J male mice (21-22 g), after fasting, were fed an HFD as a model of hyperlipidemia for 8 weeks. During” for “During”
For the expression of SR-B1, HMGR, PPARγ and ROCK II, isolated liver tissues were cut into small chips and placed into an extraction buffer (Tris 10 mM, pH 7.0, NaCl 140 mM, PMSF 2 mM, DTT 5 mM, NP-40 0.5%, pepstatin A 0.05 mM and leupeptin 0.2 mM) for hepatic protein extraction, and centrifuged at 20,000×g for 30 minutes. The obtained protein extract was boiled to a ratio of 4:1 with a sample buffer (Tris 100 mM, pH 6.8, glycerol 20%, SDS 4% and bromophenol blue 0.2%). Electrophoresis was performed using 10% SDS-polyacrylamide gel (1 hour, 100 V, 40 mA, 20 μg protein per lane).
Separated proteins, after 3 repeated centrifugations to discard up-layer tissue lipid in purity, were transferred to PVDF membranes treated with 5% fat-free milk powder to block the nonspecific IgGs (90 minutes, 100 V) and incubated for 1 hour with specific protein antibody. The blot was then incubated with anti-mouse or anti-goat IgG linked to alkaline phosphatase (1:1000) for 1 hour.

ROCK II = ROCK II expression in HepG2 cells; assay type: cell-based
Procedure: (§2) The HepG2 hepatoma cell line was purchased from the American Type Culture Collection (ATCC, Manassas, Va., U.S.A.). Cells were cultured in Dulbecco's Modified Eagle's Medium (DMEM). […] Then the targeted drugs solution was incubated with the cells for 24 hours, followed by protein extraction. […] HepG2 cells were treated with various concentrations of targeted drugs for 24 hours. Reactions were terminated by washing twice with cold PBS, and the cells were then harvested. Proteins in the whole-cell lysate were homogenized in an ice-cold lysis buffer and a protease inhibitor (Sigma-Aldrich, St. Louis, Mo., U.S.A.). The homogenate was centrifuged at 90,000×g for 15 minutes at 4° C., and supernatant was recovered as the total cellular protein. Cytosolic and membrane fractions of HepG2 cells were prepared using a CNM (Cytosol Nuclear Membrane) compartmental protein extraction kit (BioChain Institute Inc., Hayward, Calif., U.S.A.) according to the manufacturer's instructions. All of the fractionated protein solutions were stored at -80° C. until analysis. To measure the expression levels of proteins by drugs, the total cell protein was extracted after incubation with treatments for 24 hours and then Western blotting analysis was performed as described previously.

PPARγ = PPARγ expression in HepG2 cells; assay type: cell-based; conditions: for PPARγ expression: 10^−5 M, 24 hours, Control 100, Vehicle 260
Procedure: as §2, with “−80°” for “-80°”

ABCA1 = ABCA1 expression in HepG2 cells; assay type: cell-based; conditions: for ABCA1 expression: 10^−5 M, 24 hours, Control 100, Vehicle 110
Procedure: as §2, with “−80°” for “-80°”

[1] = 10^−5 M, 24 hours, Control 100, Vehicle 88
[2] = HepG2 cells, GGPP (10 μM) + drug 10^−5 M
[3] = HepG2 cells, GGPP (10 μM) + drug 10^−6 M
[4] = HepG2 cells, GGPP (10 μM) + drug 10^−7 M
[5] = HepG2 cells, GGPP (10 μM) + drug 10^−8 M
[6] = HepG2 cells, GGPP (10 μM) + drug 10^−9 M

Compound: Cn1c(=O)c2c(ncn2CCN2CCN(c3ccccc3Cl)CC2)n(C)c1=O [KMUP-1, 7-[2-[4-(2-chlorophenyl)piperazinyl]ethyl]-1,3-dimethylxanthine]
- HDL cholesterol (mice fed with HFD; 2.5 mg/kg p.o.): 103.6 ± 4.2 mg/dL
- LDL cholesterol (mice fed with HFD; 2.5 mg/kg p.o.): 14.2 ± 1.4 mg/dL
- TG in serum (Triacylglycerol) (mice fed with HFD; 2.5 mg/kg p.o.): 74.5 ± 5.1 mg/dL
- TG of liver (mice fed with HFD; 2.5 mg/kg p.o.): 28.4 ± 3.6 mg/dL
- Tot. chol. (total cholesterol) (mice fed with HFD; 2.5 mg/kg p.o.): 133.0 ± 5.1 mg/dL
- HDL cholesterol (mice fed with HFD; 5 mg/kg p.o.): 118.3 ± 5.7 mg/dL
- LDL cholesterol (mice fed with HFD; 5 mg/kg p.o.): 14.2 ± 2.2 mg/dL
- TG in serum (Triacylglycerol) (mice fed with HFD; 5 mg/kg p.o.): 72.7 ± 4.7 mg/dL
- TG of liver (mice fed with HFD; 5 mg/kg p.o.): 26.12 ± 3.1 mg/dL
- Tot. chol. (total cholesterol) (mice fed with HFD; 5 mg/kg p.o.): 125.5 ± 9.8 mg/dL
- HDL chol. (mice fed with HFD; Dose 2.5 mg/kg (Table 2)): 103.6 ± 4.2 mg/dL
- LDL chol. (mice fed with HFD; Dose 2.5 mg/kg (Table 2)): 14.2 ± 1.4 mg/dL
- TG (mice fed with HFD; Dose 2.5 mg/kg (Table 2)): 74.5 ± 5.1 mg/dL
- Tot. chol. (mice fed with HFD; Dose 2.5 mg/kg (Table 2)): 133 ± 5.1 mg/dL
- HDL chol. (mice fed with HFD; Dose 5 mg/kg (Table 2)): 118.3 ± 5.7 mg/dL
- LDL chol. (mice fed with HFD; Dose 5 mg/kg (Table 2)): 14.2 ± 2.2 mg/dL
- TG (mice fed with HFD; Dose 5 mg/kg (Table 2)): 72.67 ± 4.7 mg/dL
- Tot. chol. (mice fed with HFD; Dose 5 mg/kg (Table 2)): 125.5 ± 9.8 mg/dL
- HFD-induced hypercholesterolemia (mice fed with HFD; supplementation): significantly improved
- HMGR (HMG CoA reductase; HFD mice, 1 mg/kg, CTL 100): 43%
- HMGR (HMG CoA reductase; HFD mice, 2.5 mg/kg, CTL 100): 150%
- HMGR (HMG CoA reductase; HFD mice, 5 mg/kg, CTL 100): 140%
- ROCK II expression (ROCK II; [1]): 41
- ROCKII (ROCK II; FPP (10 μM) + drug 10^−5 M): 60%
- ROCKII (ROCK II; FPP (10 μM) + drug 10^−6 M): 80%
- ROCKII (ROCK II; FPP (10 μM) + drug 10^−7 M): 88%
- ROCKII (ROCK II; FPP (10 μM) + drug 10^−8 M): 86%
- ROCKII (ROCK II; FPP (10 μM) + drug 10^−9 M): 84%
- ROCKII (ROCK II; GGPP (10 μM) + drug 10^−5 M): 40%
- ROCKII (ROCK II; GGPP (10 μM) + drug 10^−6 M): 60%
- ROCKII (ROCK II; GGPP (10 μM) + drug 10^−7 M): 108%
- ROCKII (ROCK II; GGPP (10 μM) + drug 10^−8 M): 120%
- ROCKII (ROCK II; GGPP (10 μM) + drug 10^−9 M): 112%
- ROCK II expression (ROCK II; Rp-8-pCPT-cGMPS + KMUP-1 (10 μM), Control 100): 170
- expression of PPARγ (PPARγ; HepG2, 10^−9-10^−5 M): increased
- increase of PPARγ (PPARγ; HepG2 cells): 2-3 folds
- PPARγ expression (PPARγ; HepG2 cells): 595
- PPARγ (PPARγ; HepG2 cells, FPP (10 μM) + drug 10^−5 M): 138%
- PPARγ (PPARγ; HepG2 cells, FPP (10 μM) + drug 10^−6 M): 140%
- PPARγ (PPARγ; HepG2 cells, FPP (10 μM) + drug 10^−7 M): 142%
- PPARγ (PPARγ; HepG2 cells, FPP (10 μM) + drug 10^−8 M): 84%
- PPARγ (PPARγ; HepG2 cells, FPP (10 μM) + drug 10^−9 M): 72%
- PPARγ (PPARγ; [2]): 120%
- PPARγ (PPARγ; [3]): 106%
- PPARγ (PPARγ; [4]): 108%
- PPARγ (PPARγ; [5]): 90%
- PPARγ (PPARγ; [6]): 78%
- expression of ABCA1 (ABCA1; HepG2, 10^−9-10^−5 M): increased
- ABCA1 expression (ABCA1; HepG2 cells): 200
- expression of ABCA1 suppressed by FPP or GGPP (ABCA1; HepG2 cells, FPP or GGPP (10 μM) + 10^−9-10^−5 M): reversed

Compound: CCC(C)(C)C(=O)O[C@H]1C[C@@H](C)C=C2C=C[C@H](C)[C@H](CC[C@@H]3C[C@@H](O)CC(=O)O3)[C@H]21 [Simva, Simvastatin, reference compound]
- HDL chol. (mice fed with HFD; Dose 5 mg/kg (Table 2)): 108.4 ± 1.3 mg/dL
- LDL chol. (mice fed with HFD; Dose 5 mg/kg (Table 2)): 17.3 ± 1.4 mg/dL
- TG (mice fed with HFD; Dose 5 mg/kg (Table 2)): 81.2 ± 4.4 mg/dL
- Tot. chol. (mice fed with HFD; Dose 5 mg/kg (Table 2)): 129.7 ± 1.4 mg/dL
- HMGR (HMG CoA reductase; Simva 5 mg/kg, CTL 100 (Table 9)): 100%
- ROCK II expression (ROCK II; [1]): 45
- ROCKII (ROCK II; GGPP (10 μM) + drug 10^−5 M): 210%
- ROCKII (ROCK II; GGPP (10 μM) + drug 10^−6 M): 220%
- ROCKII (ROCK II; GGPP (10 μM) + drug 10^−7 M): 200%
- ROCKII (ROCK II; GGPP (10 μM) + drug 10^−8 M): 214%
- ROCKII (ROCK II; GGPP (10 μM) + drug 10^−9 M): 210%
- PPARγ expression (PPARγ; HepG2 cells): 350
- PPARγ (PPARγ; [2]): 46%
- PPARγ (PPARγ; [3]): 46%
- PPARγ (PPARγ; [4]): 44%
- PPARγ (PPARγ; [5]): 40%
- PPARγ (PPARγ; [6]): 46%
- ABCA1 expression (ABCA1; HepG2 cells): 146

Source: patent publication US20190008870A1, “COMPOSITIONS AND METHODS FOR LIPID METABOLISM DISORDER” (JANSFAT BIOTECHNOLOGY CO., LTD., priority 2016, published 2019)
